# Results reported in patent US20040086901A1, “Database for analyzing gene function and method of analyzing gene function by dspa” (priority 2000, published 2004).
# What was measured:
# Format in all cases: cell-based, mouse
# [1] = tested on: NIH3T3 cells overexpressing PKCepsilon-KN; assay: MTT cell viability, PKCepsilon-KN overexpressing cells vs parental line; conditions: 3 to 4 days
# Outline: (§1)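 Each full-length cDNA is expressed from a CMV vector in NIH3T3 cells, and a high-expressing clone is compared with the parental line. Viability is measured by MTT after 3–4 days with graded drug concentrations, and the log IC40 ratio is reported.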
# [2] = tested on: NIH3T3 cells overexpressing PDGF-R; assay: MTT cell viability, PDGF-R overexpressing cells vs parental line; conditions: PDGF-R high-expressing cells / parental cell line, 3 to 4 days
# Outline: (§2)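 Stable NIH3T3 transfectants (cDNA in pRc-CMV-type vector, G-418-selected, high expressers picked by Western blot) and parental cells were seeded at 1×10^5 cells/ml into twofold serial drug dilutions and grown 3–4 days. MTT formazan was read at 574/655 nm, and log ratios of IC40 values were derived.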
# [3] = tested on: NIH3T3 cells overexpressing p38-DN; assay: MTT cell viability, p38-DN overexpressing cells vs parental line; conditions: p38-DN high-expressing cells / parental cell line, 3 to 4 days
# Outline: as §1
# [4] = tested on: NIH3T3 cells overexpressing PDGF-R-Del; assay: MTT cell viability, PDGF-R-Del overexpressing cells vs parental line; conditions: PDGF-R-Del high-expressing cells / parental cell line, 3 to 4 days
# Outline: as §2
# [5] = tested on: NIH3T3 cells overexpressing coup; assay: MTT cell viability, coup overexpressing cells vs parental line; conditions: coup high-expressing cells / parental cell line, 3 to 4 days
# Outline: as §2
# [6] = tested on: NIH3T3 cells overexpressing C/EBPb; assay: MTT cell viability, C/EBPb overexpressing cells vs parental line; conditions: C/EBPb high-expressing cells / parental cell line, 3 to 4 days
# Outline: as §1
# [7] = tested on: NIH3T3 cells overexpressing m-calpain; assay: MTT cell viability, m-calpain overexpressing cells vs parental line; conditions: m-calpain high-expressing cells / parental cell line, 3 to 4 days
# Outline: as §1
# [8] = tested on: NIH3T3 cells overexpressing JNK-DN; assay: MTT cell viability, JNK-DN overexpressing cells vs parental line; conditions: JNK-DN high-expressing cells / parental cell line, 3 to 4 days
# Outline: as §2
# [9] = tested on: NIH3T3 cells overexpressing C/EBPa; assay: MTT cell viability, C/EBPa overexpressing cells vs parental line; conditions: C/EBPa high-expressing cells / parental cell line, 3 to 4 days
# Outline: as §1
# [10] = tested on: NIH3T3 cells overexpressing HNF1; assay: MTT cell viability, HNF1 overexpressing cells vs parental line; conditions: HNF1 high-expressing cells / parental cell line, 3 to 4 days
# Outline: as §1
# [11] = tested on: NIH3T3 cells overexpressing DAN; assay: MTT cell viability, DAN overexpressing cells vs parental line; conditions: DAN high-expressing cells / parental cell line, 3 to 4 days
# Outline: as §2
# [12] = tested on: NIH3T3 cells overexpressing Ha-ras; assay: MTT cell viability, drug sensitivity of Ha-ras overexpressing cells vs parental line; conditions: Ha-ras high-expressing cells / parental cell line, 3 to 4 days
# Outline: as §1
# [13] = tested on: NIH3T3 cells overexpressing PKCalpha-KN; assay: MTT cell viability, PKCalpha-KN overexpressing cells vs parental line; conditions: 3 to 4 days
# Outline: as §1
# [14] = tested on: NIH3T3 cells overexpressing v-src; assay: MTT cell viability, v-src overexpressing cells vs parental line; conditions: v-src high-expressing cells / parental cell line, 3 to 4 days
# Outline: as §2
# [15] = tested on: NIH3T3 cells overexpressing HSP4O; assay: MTT cell viability, HSP4O overexpressing cells vs parental line; conditions: HSP4O high-expressing cells / parental cell line, 3 to 4 days
# Outline: as §2
# [16] = tested on: NIH3T3 cells overexpressing cystatin alpha; assay: MTT cell viability, cystatin alpha overexpressing cells vs parental line; conditions: cystatin alpha high-expressing cells / parental cell line, 3 to 4 days
# Outline: as §2
# [17] = tested on: NIH3T3 cells overexpressing RhoA-DN; assay: MTT cell viability, RhoA-DN overexpressing cells vs parental line; conditions: RhoA-DN high-expressing cells / parental cell line, 3 to 4 days
# Outline: as §1
# [18] = tested on: NIH3T3 cells overexpressing TK; assay: MTT cell viability, TK overexpressing cells vs parental line; conditions: TK high-expressing cells / parental cell line, 3 to 4 days
# Outline: as §2
# [19] = tested on: NIH3T3 cells overexpressing CP-antisense; assay: MTT cell viability, CP-antisense cells vs parental line; conditions: 3 to 4 days
# Outline: as §2
structure (smiles),measurement,setting,value
"COC[C@H]1OC(=O)c2coc3c2[C@@]1(C)C1=C(C3=O)[C@@H]2CCC(=O)[C@@]2(C)C[C@H]1OC(C)=O [Wortmannin, wortmannin]",logarithmic value of ratio of IC40 values,[1]; PKCepsilon-KN (first of two lines) high-expressing cells / parental cell line,−0.15
same,logarithmic value of ratio of IC40 values,[1]; PKCepsilon-KN (second of two lines) high-expressing cells / parental cell line,−0.28
same,logarithmic value of ratio of IC40 values,[2],0.00
same,logarithmic value of ratio of IC40 values,[3],−0.18
same,logarithmic value of ratio of IC40 values,[4],0.07
same,logarithmic value of ratio of IC40 values,[5],0.10
same,logarithmic value of ratio of IC40 values,[6],0.34
same,logarithmic value of ratio of IC40 values,[7],0.18
same,logarithmic value of ratio of IC40 values,[8],−0.09
same,logarithmic value of ratio of IC40 values,[9],0.00
same,logarithmic value of ratio of IC40 values,[10],0.16
same,logarithmic value of ratio of IC40 values,[11],0.52
same,logarithmic value of ratio of IC40 values,[12],0.34
same,logarithmic value of ratio of IC40 values,[13]; PKCalpha-KN (first of two lines) high-expressing cells / parental cell line,0.41
same,logarithmic value of ratio of IC40 values,[13]; PKCalpha-KN (second of two lines) high-expressing cells / parental cell line,−0.06
same,logarithmic value of ratio of IC40 values,[14],0.08
same,logarithmic value of ratio of IC40 values,[15],−0.07
same,logarithmic value of ratio of IC40 values,[16],0.45
same,logarithmic value of ratio of IC40 values,[17],0.00
same,logarithmic value of ratio of IC40 values,[18],0.00
same,logarithmic value of ratio of IC40 values,[19],−0.12
